Measured values reported in US8138168B1 (Takeda Pharmaceutical Company Limited, priority 2007, dated 2012).

biological target: T1, Recombinant human renin (Homo sapiens, UniProt P00797); test: In vitro enzymatic activity assay of renin inhibitors (fluorogenic peptide substrate); format: biochemical; settings: not given
T1 construct: isolate the active form (residues 67-406); made in house; host or cells: FreeStyle 293-F cells (transient expression of pcDNA3.1(+)/hREN)
T1 sequence (P00797 67-406): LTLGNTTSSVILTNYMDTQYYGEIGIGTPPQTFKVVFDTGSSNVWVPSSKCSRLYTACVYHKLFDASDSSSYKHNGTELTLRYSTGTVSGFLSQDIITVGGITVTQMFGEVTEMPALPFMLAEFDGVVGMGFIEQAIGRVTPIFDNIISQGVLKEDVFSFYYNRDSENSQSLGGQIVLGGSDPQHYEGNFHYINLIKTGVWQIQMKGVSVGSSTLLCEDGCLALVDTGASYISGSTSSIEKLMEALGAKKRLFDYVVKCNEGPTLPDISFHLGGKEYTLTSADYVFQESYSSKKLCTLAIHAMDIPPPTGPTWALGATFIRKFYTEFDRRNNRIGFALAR
In short: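 Enzyme: recombinant human renin, 3 nM final, 10 min compound pre-incubation at 37 °C; buffer 50 mM Hepes pH 7.4 with 0.1 mg/mL BSA or extra 2% BSA; 5% DMSO.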

Structure (SMILES)	IC50
COCCCn1c([C@@H]2CCCN(C(=O)[C@@H]3CN(C(=O)Oc4ccccc4Cl)C[C@H]3N)C2)nc2ccccc21 [Compound 390, (3S,4R)-2-chlorophenyl 3-amino-4-((R)-3-(1-(3-methoxypropyl)-1H-benzo[d]imidazol-2-yl)piperidine-1-carbonyl)pyrrolidine-1-carboxylate]	> 1 µM

same assay, conditions: read-out: IC50 of Exemplified Compounds Against Renin

Structure (SMILES)	IC50
COCCCn1c([C@@H]2CCCN(C(=O)[C@@H]3CN(S(=O)(=O)C(C)C)C[C@H]3N)C2)nc2ccccc21 [Compound 371, ((3R,4S)-4-amino-1-(isopropylsulfonyl)pyrrolidin-3-yl)((R)-3-(1-(3-methoxypropyl)-1H-benzo[d]imidazol-2-yl)piperidin-1-yl)methanone]	0.1 to 1 µM
COCCCn1c([C@@H]2CCCN(C(=O)[C@@H]3CN(S(=O)(=O)c4ccc(OC)c(OC)c4)C[C@H]3N)C2)nc2ccccc21 [Compound 372, ((3R,4S)-4-amino-1-(3,4-dimethoxyphenylsulfonyl)pyrrolidin-3-yl)((R)-3-(1-(3-methoxypropyl)-1H-benzo[d]imidazol-2-yl)piperidin-1-yl)methanone]	0.1 to 1 µM
COCCCn1c([C@@H]2CCCN(C(=O)[C@@H]3CN(S(=O)(=O)c4ccccc4C(=O)OC)C[C@H]3N)C2)nc2ccccc21 [Compound 373, methyl 2-((3S,4R)-3-amino-4-((R)-3-(1-(3-methoxypropyl)-1H-benzo[d]imidazol-2-yl)piperidine-1-carbonyl)pyrrolidin-l-ylsulfonyl)benzoate]	0.1 to 1 µM
COCCCn1c([C@@H]2CCCN(C(=O)[C@@H]3CN(S(=O)(=O)c4ccc(C(C)(C)C)cc4)C[C@H]3N)C2)nc2ccccc21 [Compound 374, ((3R,4S)-4-amino-1-(4-tert-butylphenylsulfonyl)pyrrolidin-3-yl)((R)-3-(1-(3-methoxypropyl)-1H-benzo[d]imidazol-2-yl)piperidin-1-yl)methanone]	0.1 to 1 µM
COCCCn1c([C@@H]2CCCN(C(=O)[C@@H]3CN(C(=O)c4cccc(Cl)c4)C[C@H]3N)C2)nc2ccccc21 [Compound 375, ((3R,4S)-4-amino-1-(3-chlorobenzoyl)pyrrolidin-3-yl)((R)-3-(1-(3-methoxypropyl)-1H-benzo[d]imidazol-2-yl)piperidin-1-yl)methanone]	0.1 to 1 µM
COCCCn1c([C@@H]2CCCN(C(=O)[C@@H]3CN(C(=O)c4cccc5ccccc45)C[C@H]3N)C2)nc2ccccc21 [Compound 376, ((3R,4S)-1-(1-naphthoyl)-4-aminopyrrolidin-3-yl)((R)-3-(1-(3-methoxypropyl)-1H-benzo[d]imidazol-2-yl)piperidin-1-yl)methanone]	0.1 to 1 µM
COCCCn1c([C@@H]2CCCN(C(=O)[C@@H]3CN(C(=O)c4cccc(C(=O)OC)c4)C[C@H]3N)C2)nc2ccccc21 [Compound 377, methyl 3-((3S,4R)-3-amino-4-((R)-3-(1-(3-methoxypropyl)-1H-benzo[d]imidazol-2-yl)piperidine-1-carbonyl)pyrrolidine-1-carbonyl)benzoate]	0.1 to 1 µM
COCCCn1c([C@@H]2CCCN(C(=O)[C@@H]3CN(C(=O)Nc4cccc(Cl)c4)C[C@H]3N)C2)nc2ccccc21 [Compound 378, (3S,4R)3-amino-N-(3-chlorophenyl)-4-((R)-3-(1-(3-methoxypropyl)-1H-benzo[d]imidazol-2-yl)piperidine-1-carbonyl)pyrrolidine-1-carboxamide]	0.1 to 1 µM
COCCCn1c([C@@H]2CCCN(C(=O)[C@@H]3CN(S(=O)(=O)c4ccccc4OC)C[C@H]3N)C2)nc2ccccc21 [Compound 379, ((3R,4S)-4-amino-1-(2-methoxyphenylsulfonyl)pyrrolidin-3-yl)((R)-3-(1-(3-methoxypropyl)-1H-benzo[d]imidazol-2-yl)piperidin-1-yl)methanone]	0.1 to 1 µM
COCCCn1c([C@@H]2CCCN(C(=O)[C@@H]3CN(S(=O)(=O)c4ccc(NC(C)=O)cc4)C[C@H]3N)C2)nc2ccccc21 [Compound 380, N-(4-((3S,4R)-3-amino-4-((R)-3-(1-(3-methoxypropyl)-1H-benzo[d]imidazol-2-yl)piperidine-1-carbonyl)pyrrolidin-1-ylsulfonyl)phenyl)acetamide]	0.1 to 1 µM
COCCCn1c([C@@H]2CCCN(C(=O)[C@@H]3CN(S(=O)(=O)c4ccc(OC)cc4[N+](=O)[O-])C[C@H]3N)C2)nc2ccccc21 [Compound 381, ((3R,4S)-4-amino-1-(4-methoxy-2-nitrophenylsulfonyl)pyrrolidin-3-yl)((R)-3-(1-(3-methoxypropyl)-1H-benzo[d]imidazol-2-yl)piperidin-1-yl)methanone]	0.1 to 1 µM
COCCCn1c([C@@H]2CCCN(C(=O)[C@@H]3CN(S(=O)(=O)c4ccc(N5CCCC5=O)cc4)C[C@H]3N)C2)nc2ccccc21 [Compound 382, 1-(4-((3S,4R)-3-amino-4-((R)-3-(1-(3-methoxypropyl)-1H-benzo[d]imidazol-2-yl)piperidine-1-carbonyl)pyrrolidin-1-ylsulfonyl)phenyl)pyrrolidin-2-one]	0.1 to 1 µM
COCCCn1c([C@@H]2CCCN(C(=O)[C@@H]3CN(S(=O)(=O)c4ccc(C)cc4C)C[C@H]3N)C2)nc2ccccc21 [Compound 383, ((3R,4S)-4-amino-1-(2,4-dimethylphenylsulfonyl)pyrrolidin-3-yl)((R)-3-(1-(3-methoxypropyl)-1H-benzo[d]imidazol-2-yl)piperidin-1-yl)methanone]	0.1 to 1 µM
COCCCn1c([C@@H]2CCCN(C(=O)[C@@H]3CN(S(=O)(=O)c4ccccc4)C[C@H]3N)C2)nc2ccccc21 [Compound 384, ((3R,4S)-4-amino-1-(phenylsulfonyl)pyrrolidin-3-yl)((R)-3-(1-(3-methoxypropyl)-1H-benzo[d]imidazol-2-yl)piperidin-1-yl)methanone]	> 1 µM
COCCCn1c([C@@H]2CCCN(C(=O)[C@@H]3CN(C(=O)c4ccccc4)C[C@H]3N)C2)nc2ccccc21 [Compound 385, ((3R,4S)-4-amino-1-benzoylpyrrolidin-3-yl)((R)-3-(1-(3-methoxypropyl)-1H-benzo[d]imidazol-2-yl)piperidin-1-yl)methanone]	> 1 µM
COCCCn1c([C@@H]2CCCN(C(=O)[C@@H]3CN(C(=O)NC4CCCCC4)C[C@H]3N)C2)nc2ccccc21 [Compound 386, (3S,4R)-3-amino-N-cyclohexyl-4-((R)-3-(1-(3-methoxypropyl)-1H-benzo[d]imidazol-2-yl)piperidine-1-carbonyl)pyrrolidine-1-carboxamide]	> 1 µM
COCCCn1c([C@@H]2CCCN(C(=O)[C@@H]3CN(C(=O)c4ccccc4OC)C[C@H]3N)C2)nc2ccccc21 [Compound 387, ((3R,4S)-4-amino-1-(2-methoxybenzoyl)pyrrolidin-3-yl)((R)-3-(1-(3-methoxypropyl)-1H-benzo[d]imidazol-2-yl)piperidin-1-yl)methanone]	> 1 µM
COCCCn1c([C@@H]2CCCN(C(=O)[C@@H]3CN(C(=O)Nc4ccc(Cl)cc4)C[C@H]3N)C2)nc2ccccc21 [Compound 388, (3S,4R)-3-amino-N-(4-chlorophenyl)-4-((R)-3-(1-(3-methoxypropyl)-1H-benzo[d]imidazol-2-yl)piperidine-l-carbonyl)pyrrolidine-1-carboxamide]	> 1 µM
COCCCn1c([C@@H]2CCCN(C(=O)[C@@H]3CN(C(=O)Nc4ccccc4Cl)C[C@H]3N)C2)nc2ccccc21 [Compound 389, (3S,4R)-3-amino-N-(2-chlorophenyl)-4-((R)-3-(1-(3-methoxypropyl)-1H-benzo[d]imidazol-2-yl)piperidine-1-carbonyl)pyrrolidine-1-carboxamide]	> 1 µM
COCCCn1c([C@@H]2CCCN(C(=O)[C@@H]3CN(S(=O)(=O)c4ccc(C#N)cc4Cl)C[C@H]3N)C2)nc2ccccc21 [Compound 391, 4-((3S,4R)-3-amino-4-((R)-3-(1-(3-methoxypropyl)-1H-benzo[d]imidazol-2-yl)piperidine-1-carbonyl)pyrrolidin-1-ylsulfonyl)-3-chlorobenzonitrile]	> 1 µM
COCCCn1c([C@@H]2CCCN(C(=O)[C@@H]3CN(S(=O)(=O)c4cccc5c4ccn5C)C[C@H]3N)C2)nc2ccccc21 [Compound 392, ((3R,4S)-4-amino-1-(1-methyl-1H-indol-4-ylsulfonyl)pyrrolidin-3-yl)((R)-3-(1-(3-methoxypropyl)-1H-benzo[d]imidazol-2-yl)piperidin-1-yl)methanone]	> 1 µM
COCCCn1c([C@@H]2CCCN(C(=O)[C@@H]3CN(C(=O)c4cccc(F)c4)C[C@H]3N)C2)nc2ccccc21 [Compound 393, ((3R,4S)-4-amino-1-(3-fluorobenzoyl)pyrrolidin-3-yl)((R)-3-(1-(3-methoxypropyl)-1H-benzo[d]imidazol-2-yl)piperidin-1-yl)methanone]	> 1 µM
COCCCn1c([C@@H]2CCCN(C(=O)[C@@H]3CN(C(=O)c4ccc(OC)cc4)C[C@H]3N)C2)nc2ccccc21 [Compound 394, ((3R,4S)-4-amino-1-(4-methoxybenzoyl)pyrrolidin-3-yl)((R)-3-(1-(3-methoxypropyl)-1H-benzo[d]imidazol-2-yl)piperidin-1-yl)methanone]	> 1 µM
COCCCn1c([C@@H]2CCCN(C(=O)[C@@H]3CN(C(=O)C4CCCC4)C[C@H]3N)C2)nc2ccccc21 [Compound 395, ((3R,4S)-4-amino-1-(cyclopentanecarbonyl)pyrrolidin-3-yl)((R)-3-(1-(3-methoxypropyl)-1H-benzo[d]imidazol-2-yl)piperidin-1-yl)methanone]	> 1 µM
